Source: PubChem BioAssay (NCI)
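Dose response: 5 concentrations. Exposure: 48 h. Format: 96-well plates. Endpoint: linear interpolation; highest concentration if not reached. TGI: concentration producing complete growth inhibition.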

Key:
Assay in all cases: NCI tumour cell line growth inhibition, 48 h
T-47D breast = test system: T-47D breast
OVCAR-8 ovarian = test system: OVCAR-8 ovarian
SK-OV-3 ovarian = test system: SK-OV-3 ovarian
SF-295 CNS = test system: SF-295 CNS
RPMI-8226 leukemia = test system: RPMI-8226 leukemia
COLO 205 colon = test system: COLO 205 colon
CAKI-1 renal = test system: CAKI-1 renal
MDA-MB-231 breast = test system: MDA-MB-231 breast
MCF7 breast = test system: MCF7 breast
HCT-15 colon = test system: HCT-15 colon
SNB-75 CNS = test system: SNB-75 CNS
M14 melanoma = test system: M14 melanoma
MDA-N = test system: MDA-N
KM12 colon = test system: KM12 colon
K-562 leukemia = test system: K-562 leukemia
IGROV1 ovarian = test system: IGROV1 ovarian
SF-268 CNS = test system: SF-268 CNS
SR leukemia = test system: SR leukemia
EKVX NSCLC = test system: EKVX NSCLC
HCC-2998 colon = test system: HCC-2998 colon
SK-MEL-5 melanoma = test system: SK-MEL-5 melanoma
NCI-H23 lung = test system: NCI-H23 lung
HL-60(TB) leukemia = test system: HL-60(TB) leukemia
MALME-3M melanoma = test system: MALME-3M melanoma
TK-10 renal = test system: TK-10 renal
SN12C renal = test system: SN12C renal
HOP-62 NSCLC = test system: HOP-62 NSCLC
SW-620 colon = test system: SW-620 colon
786-0 renal = test system: 786-0 renal
DU-145 prostate = test system: DU-145 prostate
A549 NSCLC = test system: A549 NSCLC
SK-MEL-28 melanoma = test system: SK-MEL-28 melanoma
RXF 393 renal = test system: RXF 393 renal
UACC-62 melanoma = test system: UACC-62 melanoma
PC-3 prostate = test system: PC-3 prostate
LOX IMVI melanoma = test system: LOX IMVI melanoma
CCRF-CEM leukemia = test system: CCRF-CEM leukemia
UACC-257 melanoma = test system: UACC-257 melanoma
HT29 colon = test system: HT29 colon
A498 renal = test system: A498 renal
HCT-116 colon = test system: HCT-116 colon
OVCAR-5 ovarian = test system: OVCAR-5 ovarian
SK-MEL-2 melanoma = test system: SK-MEL-2 melanoma
SF-539 CNS = test system: SF-539 CNS
NCI-H226 lung = test system: NCI-H226 lung
NCI-H522 lung = test system: NCI-H522 lung
NCI-H460 lung = test system: NCI-H460 lung
MDA-MB-435 = test system: MDA-MB-435
HOP-92 NSCLC = test system: HOP-92 NSCLC
OVCAR-3 ovarian = test system: OVCAR-3 ovarian
NCI/ADR-RES ovarian = test system: NCI/ADR-RES ovarian
ACHN renal = test system: ACHN renal
UO-31 renal = test system: UO-31 renal
OVCAR-4 ovarian = test system: OVCAR-4 ovarian
SNB-19 CNS = test system: SNB-19 CNS
U251 CNS = test system: U251 CNS
BT-549 breast = test system: BT-549 breast
MOLT-4 leukemia = test system: MOLT-4 leukemia

COc1ccc(C(=O)/C=C/c2ccc(OCC(=N)N)cc2)cc1OC
TGI (T-47D breast): > 10 µM | TGI (OVCAR-8 ovarian): > 10 µM | TGI (SK-OV-3 ovarian): > 10 µM | TGI (SF-295 CNS): > 10 µM | TGI (RPMI-8226 leukemia): > 10 µM | TGI (COLO 205 colon): > 10 µM | TGI (CAKI-1 renal): > 10 µM | TGI (MDA-MB-231 breast): > 10 µM | TGI (MCF7 breast): > 10 µM | TGI (HCT-15 colon): > 10 µM | TGI (SNB-75 CNS): 9.98 µM | TGI (M14 melanoma): > 10 µM | TGI (MDA-N): > 10 µM | TGI (KM12 colon): 8.31 µM | TGI (K-562 leukemia): > 10 µM | TGI (IGROV1 ovarian): > 10 µM | TGI (SF-268 CNS): > 10 µM | TGI (SR leukemia): 4.39 µM | TGI (EKVX NSCLC): > 10 µM | TGI (HCC-2998 colon): > 10 µM | TGI (SK-MEL-5 melanoma): > 10 µM | TGI (NCI-H23 lung): > 10 µM | TGI (HL-60(TB) leukemia): 4.82 µM | TGI (MALME-3M melanoma): > 10 µM | TGI (TK-10 renal): > 10 µM | TGI (SN12C renal): > 10 µM | TGI (HOP-62 NSCLC): > 10 µM | TGI (SW-620 colon): > 10 µM | TGI (786-0 renal): > 10 µM | TGI (DU-145 prostate): > 10 µM | TGI (A549 NSCLC): > 10 µM | TGI (SK-MEL-28 melanoma): > 10 µM | TGI (RXF 393 renal): > 10 µM | TGI (UACC-62 melanoma): > 10 µM | TGI (PC-3 prostate): > 10 µM | TGI (LOX IMVI melanoma): > 10 µM | TGI (CCRF-CEM leukemia): 8.86 µM | TGI (UACC-257 melanoma): > 10 µM | TGI (HT29 colon): > 10 µM

CC1=CC(=O)c2c(O)cccc2C1=O
TGI (T-47D breast): 2.22 µM | TGI (OVCAR-8 ovarian): 3.2 µM | TGI (SK-OV-3 ovarian): 27.2 µM | TGI (SF-295 CNS): 23.9 µM | TGI (A498 renal): 13.2 µM | TGI (RPMI-8226 leukemia): 1.83 µM | TGI (COLO 205 colon): 3.39 µM | TGI (CAKI-1 renal): 3.24 µM | TGI (HCT-116 colon): 3.11 µM | TGI (OVCAR-5 ovarian): 3.78 µM | TGI (SK-MEL-2 melanoma): 3.72 µM | TGI (MDA-MB-231 breast): 3.64 µM | TGI (MCF7 breast): 3.9 µM | TGI (SNB-75 CNS): 16.9 µM | TGI (M14 melanoma): 3.3 µM | TGI (SF-539 CNS): 3.92 µM | TGI (MDA-N): 3.23 µM | TGI (KM12 colon): 19.5 µM | TGI (K-562 leukemia): 2.52 µM | TGI (NCI-H226 lung): 24.6 µM | TGI (NCI-H522 lung): 3.01 µM | TGI (IGROV1 ovarian): 3.33 µM | TGI (NCI-H460 lung): > 26.1 µM | TGI (SF-268 CNS): 3.96 µM | TGI (SR leukemia): 4.95 µM | TGI (MDA-MB-435): 3.26 µM | TGI (HOP-92 NSCLC): 1.43 µM | TGI (EKVX NSCLC): 3.08 µM | TGI (HCC-2998 colon): 4.12 µM | TGI (OVCAR-3 ovarian): 2.29 µM | TGI (SK-MEL-5 melanoma): 3.05 µM | TGI (NCI/ADR-RES ovarian): 3.16 µM | TGI (ACHN renal): 3.01 µM | TGI (NCI-H23 lung): 3.47 µM | TGI (HL-60(TB) leukemia): 0.398 µM | TGI (UO-31 renal): 2.98 µM | TGI (MALME-3M melanoma): 2.19 µM | TGI (TK-10 renal): 3.14 µM | TGI (SN12C renal): 3.39 µM | TGI (HOP-62 NSCLC): 17.6 µM | TGI (SW-620 colon): 4.15 µM | TGI (OVCAR-4 ovarian): 3.26 µM | TGI (SNB-19 CNS): 25 µM | TGI (786-0 renal): 3.01 µM | TGI (DU-145 prostate): 3.02 µM | TGI (A549 NSCLC): 34.6 µM | TGI (U251 CNS): 20.4 µM | TGI (SK-MEL-28 melanoma): 3.28 µM | TGI (RXF 393 renal): 3.07 µM | TGI (BT-549 breast): 3.15 µM | TGI (UACC-62 melanoma): 3.4 µM | TGI (PC-3 prostate): 4.75 µM | TGI (MOLT-4 leukemia): 0.762 µM | TGI (LOX IMVI melanoma): 3.32 µM | TGI (CCRF-CEM leukemia): 0.621 µM | TGI (UACC-257 melanoma): 3.27 µM | TGI (HT29 colon): 3.46 µM
